Values quoted from earlier work, collected in patent US20180177744A1, “METHOD OF TREATING PAIN AND […] A HYBRID MIXTURE OF S-KETAMINE AND R-KETAMINE” (priority 2016, published 2018).
Like-named read-outs stand apart in the source and are kept apart here.

Assays:
[1] = in vivo
[2] = for anaesthetic potency relative to arketamine (R-isomer): clinically, versus arketamine
dopamine transporters = settings: versus arketamine
[3] = test system: phencyclidine binding sites on the NMDA receptors; settings: versus arketamine
[4] = not given; remark: listed apart in the source
[5] = liquid formulation at 30 mg to 50 mg, intranasal (IN) route
[6] = mice; versus esketamine

dopamine transporters, sequence (Q01959 whole entry): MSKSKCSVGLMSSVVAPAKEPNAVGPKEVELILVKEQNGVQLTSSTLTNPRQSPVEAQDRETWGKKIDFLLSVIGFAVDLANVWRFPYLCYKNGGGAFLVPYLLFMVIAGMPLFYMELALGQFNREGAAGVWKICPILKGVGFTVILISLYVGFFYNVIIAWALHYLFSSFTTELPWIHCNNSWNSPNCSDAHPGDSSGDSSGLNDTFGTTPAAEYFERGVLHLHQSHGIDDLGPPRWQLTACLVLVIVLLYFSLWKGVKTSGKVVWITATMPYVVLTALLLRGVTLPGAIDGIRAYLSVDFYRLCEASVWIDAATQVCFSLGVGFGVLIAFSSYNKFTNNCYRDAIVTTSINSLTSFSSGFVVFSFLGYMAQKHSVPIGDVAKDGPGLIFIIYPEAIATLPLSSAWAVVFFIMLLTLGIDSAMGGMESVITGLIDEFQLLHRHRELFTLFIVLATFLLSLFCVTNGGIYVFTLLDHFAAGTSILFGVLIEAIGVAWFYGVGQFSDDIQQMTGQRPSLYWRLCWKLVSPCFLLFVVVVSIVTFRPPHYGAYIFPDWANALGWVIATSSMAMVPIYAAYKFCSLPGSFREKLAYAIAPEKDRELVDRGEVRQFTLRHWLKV

Structure (SMILES)	recovery of cerebral functions (after anaesthesia, study persons)	glucose metabolism in the brain [1]	anaesthetic potency relative to arketamine (R-isomer) [2]	anaesthetic potency relative to arketamine (R-isomer) ([2]; listed as S(+)ketamine)	anesthetic potency relative to racemic ketamine ([2]; versus racemic ketamine)	inhibition of dopamine transporters relative to arketamine (dopamine transporters)	binding to sigma receptors (sigma receptors)	affinity for the PCP binding site of the NMDA receptor relative to arketamine ([3]; listed as Esketamine)	affinity for the PCP binding site of the NMDA receptor relative to arketamine ([3]; listed as S(+)ketamine)	elimination from the human body [4]	ability to stop acute and/or breakthrough pain [5]	psychotomimetic effects (in vivo)	rapid antidepressant effect [6]
CN[C@]1(c2ccccc2Cl)CCCCC1=O [esketamine, S(+)-ketamine]	more rapid recovery of cerebral functions	increases glucose metabolism in the frontal cortex	3-4 times	three to four times	two times	eight times more	does not bind significantly	3-4 times	three to four times greater	more quickly than arketamine (R(−)-ketamine) or racemic ketamine	–	–	–
CNC1(c2ccccc2Cl)CCCCC1=O (racemic) [racemic ketamine, 2-(2-chlorphenyl)-2-(methylamino)-cyclohexanone]	–	–	–	–	–	–	–	–	–	–	stop acute and/or breakthrough pain	–	–
CN[C@@]1(c2ccccc2Cl)CCCCC1=O [arketamine, R(−)-ketamine]	–	decreases glucose metabolism in the brain	–	–	–	–	–	–	–	–	–	devoid of psychotomimetic effects	greater and lasted longer than that of esketamine
